The results in this text go back to patent US8242118B2, “Arylsulfonamide derivatives for use as CCR3 antagonists in the treatment of inflammatory and immunological disorders” (Axikin Pharmaceuticals Inc., priority 2001, dated 2012).

Counter-ions that a name gives are not always drawn.

For this assay, the target named is T1, Human CCR3 (Homo sapiens, UniProt P51677).
T1 construct: The cloned CCR3 cDNA was constructed with pcDNA3 vector and transfected into a IC562 cell line; expressed in transfected cells
T1 sequence (P51677 1-355): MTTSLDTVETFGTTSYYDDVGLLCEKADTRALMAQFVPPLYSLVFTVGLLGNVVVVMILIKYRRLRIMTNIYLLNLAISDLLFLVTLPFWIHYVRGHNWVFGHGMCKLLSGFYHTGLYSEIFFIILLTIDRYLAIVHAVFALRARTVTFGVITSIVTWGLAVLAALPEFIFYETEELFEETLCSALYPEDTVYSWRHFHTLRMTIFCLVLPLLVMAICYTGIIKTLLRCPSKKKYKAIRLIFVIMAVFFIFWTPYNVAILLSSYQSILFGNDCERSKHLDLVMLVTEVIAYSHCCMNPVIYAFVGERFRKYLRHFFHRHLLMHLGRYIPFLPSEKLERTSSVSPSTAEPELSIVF
In words: Calcium mobilization assay, eotaxin-stimulated. The format is cell-based. Conditions: human CCR3-transformed K562 cells, 10 nM eotaxin; compounds of about 40 to 90% purity; read-out: Activity grade Ca2+ (IC50 class). How it is done:
• Human CCR3-transformed K562 cells were used. The cloned CCR3 cDNA was constructed with pcDNA3 vector and transfected into a IC562 cell line. The human CCR3-transformed K562 cells were maintained in RPMI-1640 (Cat.#22400-089, Life Technologies) supplemented with 10% FCS (Cat.#A-1115-L, Hyclone), 55 μM 2-mercaptoethanol (Cat.#21985-023, Life Technologies), 1 mM sodium pyruvate (Cat.#11360-070, Life Technologies), 100 units/ml of penicillin G and 100 μg/ml of streptomycin (Cat.#15140-122, Life Technologies), and 0.4 mg/ml of Geneticin (Cat.#10131-035, Life Technologies)(hereinafter called “culture medium”). Before the receptor binding assay, cells were pretreated with 5 mM sodium butyrate (Cat.#193-01522, Wako)-containing the culture medium (2×10^5 cells/ml) for 20-24 hours to increase the expression of CCR3. (2) Receptor Binding Assay (RBA) • Butyrate-pretreated cells, suspended in binding buffer (25 mM HEPES pH 7.6, 1 mM CaCl2, 5 mM MgCl2, 0.5% BSA, 0.1% NaN3) at a cell density of 2×10^6 cells/ml, were added into 60 μl/well in the 96-well round bottom polypropylene plate (Cat.#3365, Costar). Compounds, diluted with the binding buffer (4-times higher concentration of the final concentration), were added into 30 μl/well in the polypropylene plate. [^125I]-labeled human eotaxin (Cat.#IM290, Amersham Pharmacia Biotech), diluted with the binding buffer at the concentration of 0.4 nM (final concentration; 0.1 nM), was added into 30 μl/well in the polypropylene plate. Total 120 μl/well of binding reaction mixture (60 μl/well of cell suspension, 30 μl/well of compound solution, and 30 μl/well of [^125I]-labeled eotaxin) were incubated in the polypropylene plate for 1 hour at room temperature after the incubation, 100 μl/well of the reaction mixture was transferred to a filtration plate (Cat.#MAFB-N0B, Millipore), and washed with the washing buffer (25 mM HEPES pH 7.6, 1 mM CaCl2, 5 mM MgCl2, 0.5% BSA, 0.1% NaN3, 0.5 M NaCl) twice. The 96-well filtration plate was pretreated with 100 μl/well of 0.5% polyethylenimine (Cat.#P-3143, Sigma) for 2-4 hours at room temperature and washed with the washing buffer twice before use. The non-specific binding was determined by parallel incubation in the presence of 500 nM of non-labeled eotaxin (Cat.#23209, Genzyme Techne). The radioactivities remained on the filter were measured by liquid scintillation counter (TopCount™, Packard) after an addition of 45 μl/well of scintillant (Microscint20, Cat.#6013621, Packard). The inhibition percent at each concentration of compound was calculated, and IC50 values were determined from the inhibition curve. [Determination of IC50 Values of Compounds in Calcium Mobilization Assay] (IC50 Ca2+) (1) Cell • Human CCR3-transformed K562 cells were used. The human CCR3-transformed K562 cells were maintained in RPMI-1640 supplemented with 10% FCS, 55 μM 2-mercaptoethanol (Cat.#21985-023, Life Technologies), 1 mM sodium pyruvate, 100 units/ml of penicillin G and 100 μg/ml of streptomycin and 0.4 mg/ml of Geneticin. Before the calcium mobilization assay, cells were pretreated with 5 mM sodium butyrate-containing the culture medium (2×10^5 cells/ml) for 20-24 hours to increase the expression of CCR3. (2) Calcium Mobilization Assay • Butyrate-pretreated cells were loaded with Fluo-3AM (Cat.#F-1242, Molecular Probes) in loading buffer (Hanks' solution Cat.#05906 Nissui, 20 mM HEPES pH 7.6, 0.1% BSA, 1 mM probenecid Cat.#P-8761 Sigma, 1 μM Fluo-3AM, 0.01% pluronic F-127 Cat.#P-6866 Molecular Probes) at a cell density of 1×10^7 cells/ml. Then, cells were washed with calcium assay buffer (Hanks' solution Cat.#05906 Nissui, 20 mM HEPES pH 7.6, 0.1% BSA, 1 mM Probenecid Cat.#P-8761 Sigma). The cell suspension (3.3×10^6 cells/ml) was added into 60 μl/well in the 96-well clear bottom black plate (Cat.#3904, Costar). Compounds, diluted (5-times concentration of the final concentration) with the calcium assay buffer, were added into 20 μl/well in the plate 10 minutes before assay. […]
(In general: Calcium assays in cells follow changes in intracellular calcium, usually with a dye or a luminescent sensor.)

The term IC50 denotes the concentration needed to halve the response being measured.

In the case of `O=[N+]([O-])c1ccc(Nc2ccc(Cl)cc2)c(S(=O)(=O)N2CCNCC2)c1` [Example 3-8], the IC50 is under 1000 nM.
The figure for `COC(=O)c1ccc(Oc2cc(C)cc(C)c2)c(S(=O)(=O)N2CCNCC2)c1` [Example 15-2, methyl 4-(3,5-dimethylphenoxy)-3-(1-piperazinylsulfonyl)benzoate hydrochloride] is under 1000 nM; for `N#Cc1ccc(Oc2cc(Cl)cc(Cl)c2)c(S(=O)(=O)N2CC[C@H](N)C2)c1` [Example 13-1, 1-{5-cyano-2-(3,5-dichlorophenoxy)phenylsulfonyl}-(3S)-aminopyrrolidine hydrochloride] it is under 1000 nM.
`Cc1cc(C)cc(Oc2cc(Cl)c(C(N)=O)cc2S(=O)(=O)N2CCNCC2)c1` [Example 15-3]: the IC50 lay within 1000 to 10000 nM.
On to `Cc1cc(C)cc(Oc2ccc(CO)cc2S(=O)(=O)N2CCNCC2)c1` [Example 16-1, [4-(3,5-dimethylphenoxy)-3-(1-piperazinylsulfonyl)phenyl]methanol hydrochloride], for which the IC50 was under 1000 nM.
For the compound `Cc1cc(C)cc(Oc2ccc(-c3nnn[nH]3)cc2S(=O)(=O)N2CCNCC2)c1` [Example 22-4, 1-{[2-(3,5-dimethylphenoxy)-5-(1H-tetraazol-5-yl)phenyl]sulfonyl}piperazine hydrochloride], the IC50 was under 1000 nM.
The figure for `CN(c1cc(Cl)cc(Cl)c1)c1ccc(C#N)cc1S(=O)(=O)N1CCNCC1` [Example 21-1, 4-[(3,5-dichlorophenyl)(methyl)amino]-3-(1-piperazinylsulfonyl)benzonitrile hydrochloride] is 1000 to 10000 nM.
As for `Cc1cc(C)cc(Oc2cc(Br)cc(S(=O)(=O)N3CCNCC3)c2)c1` [Example 24-1, 1-{[3-bromo-5-(3,5-dimethylphenoxy)phenyl]sulfonyl}piperazine hydrochloride], the IC50 was under 1000 nM.
Consider `O=[N+]([O-])c1ccc(Oc2cc(Cl)cc(Cl)c2)c(S(=O)(=O)NCCN2CCCCC2)c1` [Example 4-41], for which the IC50 was under 1000 nM.
For `Cc1cc(C)cc(Oc2ccc(C(=O)NCCC(N)=O)cc2S(=O)(=O)N2CCNCC2)c1` [Example 22-2, N-[4-(3,5-dimethylphenoxy)-3-(1-piperazinylsulfonyl)benzoyl]-beta-alanineamide hydrochloride], the IC50 is under 1000 nM.
As to `Cc1cc(C)cc(Oc2ccc(C(=O)NCCC#N)cc2S(=O)(=O)N2CCNCC2)c1` [Example 22-1, N-(2-cyanoethyl)-4-(3,5-dimethylphenoxy)-3-(1-piperazinylsulfonyl)benzamide hydrochloride], the IC50 was under 1000 nM.
Regarding `O=C(O)c1ccc(Oc2cc(Cl)cc(Cl)c2)c(S(=O)(=O)N2CCNCC2)c1` [Example 14-3], the IC50 is under 1000 nM.
Take `N#Cc1ccc(Oc2cc(Cl)cc(Cl)c2)c(S(=O)(=O)NCCN)c1` [Example 13-8]: the IC50 is under 1000 nM.
As to `O=[N+]([O-])c1ccc(Nc2cccc(Cl)c2)c(S(=O)(=O)N2CCNCC2)c1` [Example 3-7], the IC50 is under 1000 nM.
On to `Cc1cc(C)cc(Oc2cc(Cl)c(C#N)cc2S(=O)(=O)N2CCNCC2)c1` [Example 12-2], for which the IC50 lay within 1000 to 10000 nM.
As to `Cc1cc(C)cc(Oc2ccc(C(N)=O)cc2S(=O)(=O)N2CCNCC2)c1` [Example 15-1, 4-(3,5-dimethylphenoxy)-3-(1-piperazinylsulfonyl)benzamide hydrochloride], the IC50 is under 1000 nM.
Take `COC(=O)c1cncc(Oc2ccc([N+](=O)[O-])cc2S(=O)(=O)N2CCNCC2)c1` [Example 1-53]: the IC50 lay in the range of 1000 to 10000 nM.
With `O=[N+]([O-])c1ccc(Nc2ccccc2F)c(S(=O)(=O)N2CCNCC2)c1` [Example 3-9], the IC50 is under 1000 nM.
Regarding `NC(=O)c1cc(F)c(Oc2cc(Cl)cc(Cl)c2)c(S(=O)(=O)N2CCNCC2)c1` [Example 15-4], the IC50 lay within 1000 to 10000 nM.
`Cc1cc(C)cc(N(C)c2ccc([N+](=O)[O-])cc2S(=O)(=O)N2CCNCC2)c1` [Example 21-2]: the IC50 was under 1000 nM.
Take `CN(C)CC(C)(C)CNS(=O)(=O)c1cc([N+](=O)[O-])ccc1Sc1cc(Cl)cc(Cl)c1` [Example 2-4]: the IC50 was under 1000 nM.
In the case of `COc1ccccc1Nc1ccc([N+](=O)[O-])cc1S(=O)(=O)N1CCNCC1` [Example 3-12], the IC50 is under 1000 nM.
On to `O=C(O)c1cc(S(=O)(=O)N2CCNCC2)c(Oc2cc(Cl)cc(Cl)c2)cc1Cl` [Example 14-4], for which the concentration for half-maximal inhibition (IC50) lay within 1000 to 10000 nM.
On to `CC1CCCCN1CCCNS(=O)(=O)c1cc([N+](=O)[O-])ccc1Oc1cc(Cl)cc(Cl)c1` (stereo not shown) [Example 4-40], for which the IC50 is under 1000 nM.
On to `O=[N+]([O-])c1ccc(Nc2cccc(F)c2)c(S(=O)(=O)N2CCNCC2)c1` [Example 3-10], for which the IC50 was under 1000 nM.
With `NCCNS(=O)(=O)c1cc([N+](=O)[O-])ccc1Oc1cc(Cl)cc(Cl)c1` [Example 1-95], the IC50 was under 1000 nM.
As for `O=[N+]([O-])c1ccc(Oc2cc(Cl)cc(Cl)c2)c(S(=O)(=O)NCC2CCNCC2)c1` [Example 1-96], the IC50 was under 1000 nM.
Consider `O=[N+]([O-])c1ccc(Nc2ccc(F)cc2)c(S(=O)(=O)N2CCNCC2)c1` [Example 3-11], for which the IC50 is under 1000 nM.
In the case of `N#Cc1ccc([S+]([O-])c2cc(Cl)cc(Cl)c2)c(S(=O)(=O)N2CCNCC2)c1` (stereo not shown) [Example 19-1, 4-[(3,5-dichlorophenyl)sulfinyl]-3-(1-piperazinylsulfonyl)benzonitrile hydrochloride], the IC50 was in the range of 1000 to 10000 nM.
Then `Cc1cc(C)cc(Oc2cc([N+](=O)[O-])ccc2S(=O)(=O)N2CCNCC2)c1` [Example 23-1, 1-{2-(3,5-dimethylphenoxy)-4-nitrophenylsulfonyl}piperazine hydrochloride], with under 1000 nM.
Turning to `Cc1cc(C)cc(Oc2ccc(-c3nnnn3CCC#N)cc2S(=O)(=O)N2CCNCC2)c1` [Example 22-3, 3-{5-[4-(3,5-dimethylphenoxy)-3-(1-piperazinylsulfonyl)phenyl]-1H-tetraazol-1-yl}propanenitrile hydrochloride], the IC50 is under 1000 nM.
With `CN(C)CCCCNS(=O)(=O)c1cc([N+](=O)[O-])ccc1Oc1cc(Cl)cc(Cl)c1` [Example 4-39], the IC50 is under 1000 nM.
For the compound `Cc1cccc(Oc2ccc([N+](=O)[O-])cc2S(=O)(=O)N2CCNCC2)c1` [Example 1-24], the IC50 was under 1000 nM.
The figure for `N#Cc1cc(S(=O)(=O)N2CCNCC2)c(Oc2cc(Cl)cc(Cl)c2)cc1Cl` [Example 12-3] is 1000 to 10000 nM.
